ChEMBL document CHEMBL2163222 (J Med Chem, 2012)
The source made the active and inactive calls. The calls are words filed in the database; no cut-off is given here.

Columns and labels:
[1] = cells; conditions: Homo sapiens, U373 MG, 72 h
[2] = tested on: NCI-H460; test: Growth inhibition of human NCI-H460 cells at 10 uM by NCI-60 cell inhibition assay; type: functional; conditions: read-out: GI
[3] = tested on: Hs 683; test: Inhibition of eIF2 activity in human Hs683 cells at 0.5 uM after 4 hrs by Western blotting method; type: functional, cell-based
[4] = tested on: UACC-62; test: Growth inhibition of human UACC62 cells at 10 uM by NCI-60 cell inhibition assay; type: functional; conditions: read-out: GI
[5] = tested on: Malme-3M; test: Growth inhibition of human MALME-3M cells at 10 uM by NCI-60 cell inhibition assay; type: functional; conditions: read-out: GI
[6] = tested on: UO-31; test: Growth inhibition of human UO31 cells at 10 uM by NCI-60 cell inhibition assay; type: functional; conditions: read-out: GI
[7] = tested on: OVCAR-5; test: Growth inhibition of human OVCAR5 cells at 10 uM by NCI-60 cell inhibition assay; type: functional; conditions: read-out: GI
[8] = tested on: HCC 2998; test: Growth inhibition of human HCC2998 cells at 10 uM by NCI-60 cell inhibition assay; type: functional; conditions: read-out: GI
[9] = tested on: NCI-H522; test: Growth inhibition of human NCI-H522 cells at 10 uM by NCI-60 cell inhibition assay; type: functional; conditions: read-out: GI
[10] = Growth inhibition of human OE21 cells after 3 days by MTT assay; type: functional, cell-based; conditions: OE21, 72 h
[11] = tested on: A498; test: Growth inhibition of human A498 cells at 10 uM by NCI-60 cell inhibition assay; type: functional; conditions: read-out: GI
[12] = tested on: 786-0; test: Growth inhibition of human 786-0 cells at 10 uM by NCI-60 cell inhibition assay; type: functional; conditions: read-out: GI
[13] = tested on: HOP-92; test: Growth inhibition of human HOP92 cells at 10 uM by NCI-60 cell inhibition assay; type: functional; conditions: read-out: GI
[14] = tested on: NCI-H23; test: Growth inhibition of human NCI-H23 cells at 10 uM by NCI-60 cell inhibition assay; type: functional; conditions: read-out: GI
[15] = Growth inhibition of human NCI-ADR-RES cells at 10 uM by NCI-60 cell inhibition assay; type: functional; conditions: read-out: GI
[16] = Inhibition of eIF2 protein expression in human Hs683 cells at 0.5 uM after 4 hrs by Western blotting method; type: functional, cell-based; conditions: Hs 683
[17] = tested on: A549; test: Growth inhibition of human A549/ATCC cells at 10 uM by NCI-60 cell inhibition assay; type: functional; conditions: read-out: GI
[18] = tested on: CCRF-CEM; test: Growth inhibition of human CCRF-CEM cells at 10 uM by NCI-60 cell inhibition assay; type: functional; conditions: read-out: GI
[19] = tested on: MDA-MB-435; test: Growth inhibition of human MDA-MB-435 cells at 10 uM by NCI-60 cell inhibition assay; type: functional; conditions: read-out: GI
[20] = tested on: SF-268; test: Growth inhibition of human SF268 cells at 10 uM by NCI-60 cell inhibition assay; type: functional; conditions: read-out: GI
[21] = Inhibition of eIF2 protein expression in human U373 cells at 0.5 uM after 4 hrs by Western blotting method; type: functional, cell-based; conditions: U-373MG ATCC
[22] = tested on: SK-OV-3; test: Growth inhibition of human SKOV3 cells at 10 uM by NCI-60 cell inhibition assay; type: functional; conditions: read-out: GI
[23] = tested on: OVCAR-8; test: Growth inhibition of human OVCAR8 cells at 10 uM by NCI-60 cell inhibition assay; type: functional; conditions: read-out: GI
[24] = tested on: Hs 683; test: cells; conditions: Homo sapiens, Hs 683, 72 h
[25] = tested on: SK-MEL-5; test: Growth inhibition of human SK-MEL-5 cells at 10 uM by NCI-60 cell inhibition assay; type: functional; conditions: read-out: GI
[26] = tested on: U-251; test: Growth inhibition of human U251 cells at 10 uM by NCI-60 cell inhibition assay; type: functional; conditions: read-out: GI
[27] = tested on: HL-60(TB); test: Growth inhibition of human HL-60(TB) cells at 10 uM by NCI-60 cell inhibition assay; type: functional; conditions: read-out: GI
[28] = tested on: SK-MEL-2; test: Growth inhibition of human SK-MEL-2 cells at 10 uM by NCI-60 cell inhibition assay; type: functional; conditions: read-out: GI
[29] = Growth inhibition of human […] cells at 10 uM by NCI-60 cell inhibition assay; type: functional; conditions: read-out: GI
[30] = tested on: MDA-MB-468; test: Growth inhibition of human MDA-MB-468 cells at 10 uM by NCI-60 cell inhibition assay; type: functional; conditions: read-out: GI
[31] = tested on: SF-295; test: Growth inhibition of human SF295 cells at 10 uM by NCI-60 cell inhibition assay; type: functional; conditions: read-out: GI
[32] = Stability in cell culture medium without serum assessed as compound recovery after 72 hrs; type: physicochemical; conditions: read-out: Stability
[33] = tested on: M14; test: Growth inhibition of human M14 cells at 10 uM by NCI-60 cell inhibition assay; type: functional; conditions: read-out: GI
[34] = tested on: IGROV-1; test: Growth inhibition of human IGROV1 cells at 10 uM by NCI-60 cell inhibition assay; type: functional; conditions: read-out: GI
[35] = tested on: HT-29; test: Growth inhibition of human HT-29 cells at 10 uM by NCI-60 cell inhibition assay; type: functional; conditions: read-out: GI
[36] = tested on: K562; test: Growth inhibition of human K562 cells at 10 uM by NCI-60 cell inhibition assay; type: functional; conditions: read-out: GI
[37] = tested on: MCF7; test: Growth inhibition of human MCF7 cells at 10 uM by NCI-60 cell inhibition assay; type: functional; conditions: read-out: GI
[38] = tested on: OVCAR-3; test: Growth inhibition of human OVCAR3 cells at 10 uM by NCI-60 cell inhibition assay; type: functional; conditions: read-out: GI
[39] = tested on: NCI-H322M; test: Growth inhibition of human NCI-H322M cells at 10 uM by NCI-60 cell inhibition assay; type: functional; conditions: read-out: GI
[40] = tested on: MDA-MB-231; test: Growth inhibition of human MDA-MB-231 cells at 10 uM by NCI-60 cell inhibition assay; type: functional; conditions: read-out: GI
[41] = tested on: CAKI-1; test: Growth inhibition of human Caki1 cells at 10 uM by NCI-60 cell inhibition assay; type: functional; conditions: read-out: GI
[42] = tested on: EKVX; test: Growth inhibition of human EKVX cells at 10 uM by NCI-60 cell inhibition assay; type: functional; conditions: read-out: GI
[43] = tested on: U-373MG ATCC; test: Inhibition of eIF2 activity in human U373 cells at 0.5 uM after 4 hrs by Western blotting method; type: functional, cell-based
[44] = tested on: SR; test: Growth inhibition of human SR cells at 10 uM by NCI-60 cell inhibition assay; type: functional; conditions: read-out: GI
[45] = species on record: Mus musculus; test: Toxicity in mouse assessed as drug tolerance; type: organism-based; conditions: in vivo
[46] = tested on: KM12; test: Growth inhibition of human KM12 cells at 10 uM by NCI-60 cell inhibition assay; type: functional; conditions: read-out: GI
[47] = tested on: MOLT-4; test: Growth inhibition of human MOLT4 cells at 10 uM by NCI-60 cell inhibition assay; type: functional; conditions: read-out: GI
[48] = tested on: HOP-62; test: Growth inhibition of human HOP62 cells at 10 uM by NCI-60 cell inhibition assay; type: functional; conditions: read-out: GI
[49] = Cytostatic activity in human U373 cells at 0.4 uM assessed global growth ratio after 72 hrs by quantitative video microscopy; type: functional, U-373MG ATCC
[50] = tested on: HCT-15; test: Growth inhibition of human HCT15 cells at 10 uM by NCI-60 cell inhibition assay; type: functional; conditions: read-out: GI
[51] = Solubility of compound at pH 7.4; type: physicochemical; conditions: buffer, read-out: solubility
[52] = tested on: SNB-19; test: Growth inhibition of human SNB19 cells at 10 uM by NCI-60 cell inhibition assay; type: functional; conditions: read-out: GI

Cc1c2c(cc[n+]1Cc1ccccc1)c1ccc(OCC3CCCCC3)cc1n2CC1CCCCC1.[Br-]
IC50 [1]: 370 nM
inhibition of growth at 10 µM [2]: -93.4%
inhibition [3]: inactive
inhibition of growth at 10 µM [4]: -94%
inhibition of growth at 10 µM [5]: -70.3%
inhibition of growth at 10 µM [6]: -93.1%
inhibition of growth at 10 µM [7]: -95.5%
inhibition of growth at 10 µM [8]: -93.2%
inhibition of growth at 10 µM [9]: -84.5%
IC50 [10]: 420 nM
inhibition of growth at 10 µM [11]: -97.4%
inhibition of growth at 10 µM [12]: -91.3%
inhibition of growth at 10 µM [13]: -85.6%
inhibition of growth at 10 µM [14]: -76.7%
inhibition of growth at 10 µM [15]: 31.5%
inhibition [16]: inactive
inhibition of growth at 10 µM [17]: -93.1%
inhibition of growth at 10 µM [18]: -36.2%
inhibition of growth at 10 µM [19]: -84.9%
inhibition of growth at 10 µM [20]: -98.7%
inhibition [21]: inactive
inhibition of growth at 10 µM [22]: -53.4%
inhibition of growth at 10 µM [23]: -90.1%
IC50 [24]: 380 nM
inhibition of growth at 10 µM [25]: -100%
inhibition of growth at 10 µM [26]: -92.5%
inhibition of growth at 10 µM [27]: -53.4%
inhibition of growth at 10 µM [28]: -86.5%
inhibition of growth at 10 µM [29]: -45.2%
inhibition of growth at 10 µM [30]: -86.6%
inhibition of growth at 10 µM [31]: -92.8%
remaining at 72 h [32]: > 95%
inhibition of growth at 10 µM [33]: -84.6%
inhibition of growth at 10 µM [34]: -70.6%
inhibition of growth at 10 µM [35]: -79%
inhibition of growth at 10 µM [36]: -45.9%
inhibition of growth at 10 µM [37]: -92.3%
inhibition of growth at 10 µM [38]: -100%
inhibition of growth at 10 µM [39]: -83.2%
inhibition of growth at 10 µM [40]: -92%
inhibition of growth at 10 µM [41]: -92.5%
inhibition of growth at 10 µM [42]: -75.5%
inhibition [43]: inactive
inhibition of growth at 10 µM [44]: -57.6%
Activity [45]: Toxic
inhibition of growth at 10 µM [46]: -99.9%
inhibition of growth at 10 µM [47]: -64.5%
inhibition of growth at 10 µM [48]: -95%
Ratio [49]: 0.25
inhibition of growth at 10 µM [50]: -81.7%
solubility [51]: 123 µM
inhibition of growth at 10 µM [52]: -90.7%

Cc1c2c(cc[n+]1Cc1ccccc1)c1ccc(OCc3ccccc3)cc1n2Cc1ccccc1.[Br-]
IC50 [1]: 440 nM
inhibition of growth at 10 µM [2]: -87.5%
inhibition [3]: Active
inhibition of growth at 10 µM [4]: -87.1%
inhibition of growth at 10 µM [5]: -73.6%
inhibition of growth at 10 µM [6]: -18.2%
inhibition of growth at 10 µM [7]: 13.5%
inhibition of growth at 10 µM [8]: -81.8%
inhibition of growth at 10 µM [9]: -47.1%
IC50 [10]: 1300 nM
inhibition of growth at 10 µM [11]: -34.5%
inhibition of growth at 10 µM [12]: -87.4%
inhibition of growth at 10 µM [13]: -67.8%
inhibition of growth at 10 µM [14]: -12.2%
inhibition of growth at 10 µM [15]: 65%
inhibition [16]: Active
inhibition of growth at 10 µM [17]: 4.01%
inhibition of growth at 10 µM [18]: -16.2%
inhibition of growth at 10 µM [19]: -93.8%
inhibition of growth at 10 µM [20]: -90.4%
inhibition [21]: Active
inhibition of growth at 10 µM [22]: 7.67%
inhibition of growth at 10 µM [23]: -70.9%
IC50 [24]: 500 nM
inhibition of growth at 10 µM [25]: -99.4%
inhibition of growth at 10 µM [26]: -80.2%
inhibition of growth at 10 µM [27]: -54.1%
inhibition of growth at 10 µM [28]: -36%
inhibition of growth at 10 µM [29]: -21.6%
inhibition of growth at 10 µM [30]: -42.3%
inhibition of growth at 10 µM [31]: -69.2%
remaining at 72 h [32]: > 95%
inhibition of growth at 10 µM [33]: -87.9%
inhibition of growth at 10 µM [34]: -65.1%
inhibition of growth at 10 µM [35]: -48.6%
inhibition of growth at 10 µM [36]: -25%
inhibition of growth at 10 µM [37]: -23.1%
inhibition of growth at 10 µM [38]: -97.1%
inhibition of growth at 10 µM [39]: -26.9%
inhibition of growth at 10 µM [40]: -85.1%
inhibition of growth at 10 µM [41]: -5.76%
inhibition of growth at 10 µM [42]: -28.8%
inhibition [43]: Active
inhibition of growth at 10 µM [44]: -52.5%
Activity [45]: Toxic
inhibition of growth at 10 µM [46]: -98.4%
inhibition of growth at 10 µM [47]: -51%
inhibition of growth at 10 µM [48]: -70.9%
Ratio [49]: 0.4
inhibition of growth at 10 µM [50]: 39.2%
solubility [51]: 461 µM
inhibition of growth at 10 µM [52]: -13.3%
